{"source": "patent US20230059009A1", "about": "“INHIBITORS OF LIN28 AND METHODS OF USE THEREOF” (The Regents of the University of California, priority 2019, published 2023)", "key": {"[1]": {"target": "T1, PRPF31 (Homo sapiens, UniProt Q8WWY3)", "T1 sequence (Q8WWY3 1-499)": "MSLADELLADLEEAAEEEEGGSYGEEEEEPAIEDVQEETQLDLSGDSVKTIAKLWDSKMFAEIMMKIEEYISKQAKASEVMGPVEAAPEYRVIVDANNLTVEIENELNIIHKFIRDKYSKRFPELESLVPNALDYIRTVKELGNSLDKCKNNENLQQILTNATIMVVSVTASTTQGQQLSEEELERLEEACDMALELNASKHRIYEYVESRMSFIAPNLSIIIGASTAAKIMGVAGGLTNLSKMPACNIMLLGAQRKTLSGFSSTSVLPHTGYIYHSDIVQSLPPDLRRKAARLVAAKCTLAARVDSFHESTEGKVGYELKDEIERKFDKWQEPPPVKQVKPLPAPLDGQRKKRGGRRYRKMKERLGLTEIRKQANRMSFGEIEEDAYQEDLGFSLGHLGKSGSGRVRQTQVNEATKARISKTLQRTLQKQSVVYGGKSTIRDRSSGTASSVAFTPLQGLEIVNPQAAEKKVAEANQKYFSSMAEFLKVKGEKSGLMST", "experiment": "MS-CETSA and IP-MS target engagement", "format": "binding", "set-up": "endogenous in cells; host or cells: Kasumi-1 cell lysate", "method": "Mass spectrometry cellular thermal shift assay (MS-CETSA, FIG. 12A) as described in (75), and immunoprecipitation using biotinylated LN1632 (FIG. 12B) were performed. […] PRPF31 is recruited to introns where its highly conserved Nop-domain coordinates the U4 snRNA—15.5K protein interaction. Subsequently, PRPF31 stabilizes the U4/U6.U5 tri-snRNP by concomitantly interacting with PRPF6 and induces the transition of the spliceosomal complex to the activated state (78)."}, "[2]": {"tested_on": "AML pt #13 cells", "experiment": "Engraftment of ex vivo treated primary AML pt #13 cells in NSGS", "set-up": "species or system NSGS mice", "settings": "ex vivo treatment 120 μM for 72 h, 12 weeks"}, "[3]": {"tested_on": "THP-1 cells (high LIN28B)", "experiment": "Subcutaneous THP-1 AML xenograft", "format": "in vivo, NSG / NSGS mice", "settings": "for Tumor growth: 100 mg/kg", "method": "Subsequently, the tumor suppressive effect of LN1632 in cancer in vivo was assessed. High LIN28B expressing THP-1 AML cells (2×10^6 cells) were implanted in NSGS mice (cell suspension in matrigel, 3:1) and at d+12 or d+8 (tumor size=50 mm^2) injection of LN1632 IP at 100 mg/kg daily was initiated. […] The effect of LN1632 in a systemic Kasumi-1 xenograft was also assessed. […] The effects of LN1632 to cytarabine chemotherapy (Ara-C) was also compared, as previously described (74). THP-1 AML cells were subcutaneously implanted (1.5×10^6 cells, high LIN28B) in NSGS mice. Daily IP injections with 100 mg/kg LN1632, 60 mg/kg cytarabine chemotherapy (Ara-C), or vehicle was started at +d3 post AML cell implantation and continued until the vehicle group reached maximal allowed tumor size (250 mm^2)."}, "[4]": {"target": "T1, PRPF31", "experiment": "MDA-MB-231 TNBC cell numbers with PRPF31 overexpression or silencing", "format": "cell-based", "set-up": "mGFP (C); host or cells: MDA-MB-231 TNBC cells", "settings": "100 μM LN1632", "from_the_text": "MDA-MB-231 TNBC cells were used to evaluate whether LN1632 targets PRPF31."}, "[5]": {"tested_on": "LIN28B-expressing Ewing Sarcoma (EwS)", "settings": "recent report (72); cited from earlier work"}, "[6]": {"tested_on": "let-7a/b and let-7 target genes", "experiment": "miRNA and let-7 target gene expression in primary AML patient cells", "format": "cell-based, human", "settings": "primary AML cells from three relapsed patients; 80-120 μM, 72 h", "from_the_text": "(§1) To measure the complete degree to which LN1632 regulates gene expression, we carried out RNA sequencing (RNAseq) in LSC-like Kasumi-1 cells. […] Importantly, we confirmed this gene expression pattern in primary AML cells from three relapsed patients (validated for LIN28B overexpression compared to healthy WBM). […] This is important because NFκB1, regulated by let-7 through IL6 (23) is, together with other BCL-2 family members (BAX, BCL2L15 and BMF, FIG. 5A), a well characterized gene associated with unique properties of LSC survival and AML relapse (45, 59, 60). […] We next explored the effect of LN1632 on primary AML cells."}, "[7]": {"experiment": "Tolerability / MTD in healthy C57BL/6 mice", "method": "Next, the tumor suppressive effect of LN1632 in vivo was investigated. The maximum tolerated dose (MTD) was evaluated in healthy female C57Bl/6 mice."}, "[8]": {"tested_on": "Caco2", "experiment": "Caco2 permeability", "format": "in vitro ADME", "settings": "Conc. 100 uM"}, "[9]": {"tested_on": "let-7 target genes / MYC target gene signatures", "experiment": "RNA sequencing in Kasumi-1 cells", "format": "cell-based, human", "settings": "40 μM or 100 μM LN1632 vs control", "from_the_text": "as §1\nTo determine the degree to which LN1632 regulates gene expression, RNA sequencing was performed in human Kasumi-1 AML cells. […] In addition, ingenuity pathway analysis predicted suppression of upstream signaling molecules IL6 and MYC (FIG. 9C)."}, "[10]": {"target": "LIN28B protein (Homo sapiens, UniProt Q6ZN17)", "sequence (Q6ZN17 whole entry)": "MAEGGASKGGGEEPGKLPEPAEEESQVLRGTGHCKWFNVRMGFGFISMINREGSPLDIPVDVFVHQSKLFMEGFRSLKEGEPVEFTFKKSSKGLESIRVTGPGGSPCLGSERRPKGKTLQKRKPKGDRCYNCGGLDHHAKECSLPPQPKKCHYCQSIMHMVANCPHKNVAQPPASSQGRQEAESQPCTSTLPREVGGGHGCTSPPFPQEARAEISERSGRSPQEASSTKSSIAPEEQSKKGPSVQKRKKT", "experiment": "Western blot of LIN28B protein levels in AML cells", "settings": "Kasumi-1 and THP-1; 1632 120-160 μM", "description": "Thus, we subcutaneously (subQ) implanted THP-1 (high LIN28B) cells or MOLM-13 (no LIN28B) into NSG mice and 12 d later (tumor size=40 mm^2) started administration of 1632 IP at 100 mg/kg every other day."}, "[11]": {"tested_on": "SW620", "experiment": "Cell viability, CTG, SW620", "format": "cell-based", "settings": "SW620 (Colon)", "method": "To measure cell viability, cell titer glow (CTG, Promega CellTiter-Glo 2.0 Assay) and MTT assays (SigmaAldrich, Cell Proliferation Kit I) were performed. Briefly, cells were serum starved overnight prior to seeding in 96-well plates. Following 24 h incubation, cells were treated with increasing concentrations of JGJ compounds for 96 hr. At assay read-out, CellTiter-Glo reagent was added and luminescence was measured after 10-minutes incubation at room temperature. For the MTT assay, MTT labeling reagent was added and incubated for 4 h. Subsequently, medium was removed and 50 μL DMSO was added to solubilize the crystals, and absorbance was measured at 570 nm. Cell viability was calculated as (Sample-Background)/(Control-Background). Current standard of care drugs, Enzalutamide, Palbociclib and Cetuximab were used as comparative controls."}}, "note": "Entries after “also recorded” stand apart in the source; their conditions may differ.", "data": [{"smiles": "CC(=O)N(C)c1cccc(-c2ccc3nnc(C)n3n2)c1", "note": "[LN1632]", "values": [{"measurement": "Interaction partners by MS-CETSA and immunoprecipitation", "setting": "[1]", "result": "interacts with additional RNA-binding proteins, in particular pre-mRNA processing factor 31"}, {"measurement": "Tm shift (MS-CETSA)", "setting": "[1]; Kasumi-1 cell lysate", "result": "induces Tm shift of endogenous PRPF31"}, {"measurement": "IP-MS capture with biotinylated LN1632, competitive elution", "setting": "[1]; n=3", "result": "captures PRPF31"}, {"measurement": "AML repopulation capability in vivo", "setting": "[2]", "result": "inhibited AML repopulation capability in vivo"}, {"measurement": "Tumor growth", "setting": "[3]; THP-1 subQ in NSG mice, 100 mg/kg IP every other day", "result": "significantly slowed tumor growth; also recorded: significantly reduced tumor growth"}, {"measurement": "Tumor growth", "setting": "[3]; THP-1 subQ in NSGS mice, 100 mg/kg IP daily", "result": "significantly reduced tumor growth 19 days post injection; also recorded: significantly slowed tumor growth"}, {"measurement": "AML tumor proliferation, LN1632 vs Ara-C", "setting": "[3]; THP-1 subQ in NSGS mice, daily IP 100 mg/kg LN1632 or 60 mg/kg Ara-C from +d3", "result": "increased inhibition of AML tumor proliferation compared to Ara-C or vehicle treated mice; also recorded: inhibited proliferation"}, {"measurement": "Anti-proliferative / pro-apoptotic effect under PRPF31 overexpression or shRNA silencing", "setting": "[4]", "result": "rescued anti-proliferative effects of LN1632; also recorded: abrogated pro-apoptotic effects of LN1632"}, {"measurement": "Suppression of Ewing Sarcoma", "setting": "[5]", "result": "selectively suppresses LIN28B-expressing Ewing Sarcoma (EwS) but not LIN28B depleted EwS"}, {"measurement": "Mature let-7a/b and let-7 target gene expression", "setting": "[6]", "result": "dose-dependent, significant upregulation of mature let-7a/b and downregulation of multiple let-7 target genes"}, {"measurement": "Weight gain", "setting": "[7]; 100 mg/kg daily +12 d then every other day +9 d, at +21 d", "result": "normal weight gain; also recorded: no significant changes in weight gain"}, {"measurement": "Complete blood count (CBC) profile", "setting": "[7]; 100 mg/kg daily for +12 d then every other day for +9 d, female C57Bl/6 mice", "result": "normal complete blood count (CBC) profile, without any leukopenia or thrombocytopenia, only mild anemia"}, {"measurement": "Tolerability", "setting": "[7]; 100 mg/kg every other day for 21 d, healthy C57BL/6 mice", "result": "non-toxic, well tolerated"}, {"measurement": "Tolerability (MTD evaluation)", "setting": "[7]; mouse, in vivo", "result": "well tolerated"}, {"measurement": "Caco2 Mean A-B % Recovery", "setting": "[8]", "result": 89.4, "unit": "%"}, {"measurement": "Caco2 efflux ratio", "setting": "[8]", "result": 1.08}, {"measurement": "Caco2 permeability Papp A-B", "setting": "[8]", "result": "A-B: 20.9 10^−6 cm/s"}, {"measurement": "Caco2 permeability Papp B-A", "setting": "[8]", "result": "B-A: 22.7 10^−6 cm/s"}, {"measurement": "Gene expression (RNAseq)", "setting": "[9]", "result": "significant downregulation of a panoply of direct let-7 target genes; also recorded: significantly downregulated genes of the HALLMARK_MYC-TARGETS_V1 gene signature"}, {"measurement": "LIN28B protein levels", "setting": "[10]", "result": "inhibits LIN28B protein expression; also recorded: dose-dependently decreases LIN28B protein levels"}, {"measurement": "IC50", "setting": "[11]", "result": 191, "unit": "µM"}]}]}
